{"source": "patent US20230310432A1", "about": "(JULIUS-MAXIMILIANS-UNIVERSITÄT WÜRZBURG, priority 2017, published 2023)", "key": {"[1]": {"tested_on": "CD4+ T cells expressing a CD19 CAR with 4-1BB costimulation", "experiment": "Multiplex cytokine analysis, co-culture with K562/CD19", "assay_type": "cell-based, human", "conditions": "dasatinib ≥25 nM; 20 h; compared to non-dasatinib treated CAR-T cells", "quoted_text": "A multiplex cytokine analysis was performed in supernatant removed from the co-culture."}, "CD19 CAR/4-1BB-T cells [2]": {"tested_on": "CD19 CAR/4-1BB-T cells", "experiment": "Serum cytokine levels in NSG/Raji xenograft model (multiplex cytokine analysis)", "assay_type": "in vivo, NSG mice"}, "[3]": {"tested_on": "activated CD19 CAR/4-1BB-T cells; Raji tumor cells", "experiment": "Raji tumor burden by bioluminescence imaging, function ON/OFF/ON (Example 7)", "assay_type": "in vivo, NSG mice", "conditions": "between day 12 and 17; CAR-T cells with prior dasatinib; 97.8% without", "protocol": "(§1) The Institutional Animal Care and Use Committee of UKW approved all mouse experiments. NOD.Cg-Prkdc^scidIl2rg^tm1wjl/SzJ (NSG) mice (female, 6-8 week old) were purchased from Charles River (Sulzfeld, Germany). Mice were inoculated with 1×10^6 Raji/ffluc_GFP tumor cells via tail vein injection (i.v.). Mice were treated with 5×10^6 CAR-modified or control untransduced T-cells (CD4:CD8 ratio=1:1) via tail vein injection (i.v.). […] Tumor burden and distribution was analyzed by serial bioluminescence imaging on an IVIS Lumina imager (Perkin Elmer, Baesweiler, Germany): mice received i.p. injections of 0.3 mg/g luciferin and images were acquired 10 minutes after luciferin injection in small binning mode at an acquisition time of 1 s to 1 min to obtain unsaturated images. Data were analyzed using LivingImage Software (Caliper) and the average radiance (or photon flux) analyzed in regions of interest that encompassed the entire body of each individual mouse. Mice were sacrificed at the end of the experiment and human T cells in bone marrow, peripheral blood and spleen were analyzed by flow cytometry. The presence of (human) cytokines in serum was measured using multiplex cytokine analysis. […]\nRaji tumor burden was determined by bioluminescence imaging on day 7, day 10, day 12, day 14, day 17, and subsequently, once a week (FIG. 16B)."}, "ZAP70 at tyrosine 319": {"tested_on": "ZAP70 at tyrosine 319", "experiment": "Quantitative Western blot of phosphorylation in CD8+ CD19 CAR/4-1BB T cells", "assay_type": "cell-based, human", "conditions": "100 nM dasatinib; co-culture with RCH-ACV"}, "[4]": {"tested_on": "NFAT-inducible GFP reporter gene in CD8+ CD19 CAR/4-1BB T cells", "experiment": "NFAT-inducible GFP reporter assay", "assay_type": "cell-based, human", "conditions": "100 nM dasatinib; stimulation with Raji, 24 h; 1211 without dasatinib, 117 unstimulated", "protocol": "T cells (co-)expressing the NFAT inducible GFPwt reporter gene were co-cultured in the presence of 10 U IL-2 with irradiated (80 Gy) Raji or K562 tumor cells at an E:T ratio of 5:1 or without target cells. […] After 24 hours of co-culture, cells were labeled with anti-CD3 mAb, and analyzed by flow cytometry to assess GFP expression in T cells.\nThe inventors prepared CD8^+ CD19 CAR/4-1BB T cells, that the inventors transduced to co-express an NFAT-inducible GFP reporter gene."}, "CD19 CAR/4-1BB-T cells [5]": {"tested_on": "CD19 CAR/4-1BB-T cells", "experiment": "Frequency of human T cells in bone marrow and peripheral blood by flow cytometry (Example 6)", "assay_type": "in vivo, NSG mice", "conditions": "CAR/treated", "protocol": "The Institutional Animal Care and Use Committee of UKW approved all mouse experiments. NOD.Cg-Prkdc^scidIl2rg^tm1wjl/SzJ (NSG) mice (female, 6-8 week old) were purchased from Charles River (Sulzfeld, Germany). Mice were inoculated with 1×10^6 Raji/ffluc_GFP tumor cells via tail vein injection (i.v.). Mice were treated with 5×10^6 CAR-modified or control untransduced T-cells (CD4:CD8 ratio=1:1) via tail vein injection (i.v.). […] Tumor burden and distribution was analyzed by serial bioluminescence imaging on an IVIS Lumina imager (Perkin Elmer, Baesweiler, Germany): mice received i.p. injections of 0.3 mg/g luciferin and images were acquired 10 minutes after luciferin injection in small binning mode at an acquisition time of 1 s to 1 min to obtain unsaturated images. Data were analyzed using LivingImage Software (Caliper) and the average radiance (or photon flux) analyzed in regions of interest that encompassed the entire body of each individual mouse. Mice were sacrificed at the end of the experiment and human T cells in bone marrow, peripheral blood and spleen were analyzed by flow cytometry. The presence of (human) cytokines in serum was measured using multiplex cytokine analysis.\nIn brief, cohorts of n≥3 mice were inoculated with 1×10^6 firefly-luciferase_GFP-transduced Raji tumor cells on day 0, and on day 7 mice were treated with either CAR-transduced or control untransduced T cells. T-cell products consisted of equal proportions of CD4^+ and CD8^+ T cells (1:1 ratio), the total dose was 5×10^6 T cells.\nThe inventors analyzed the presence of human T cells in bone marrow (BM), spleen (SP) and peripheral blood (PB) of mice, at d1 and d3 after T cell injection using flow cytometry. Live human T cells were identified as 7AAD^−, […] and CD4^+."}, "[6]": {"tested_on": "activated CD19 CAR/CD28-T cells; Raji tumor cells", "experiment": "Raji tumor burden by bioluminescence imaging, function ON/OFF/ON (Example 8)", "assay_type": "in vivo, NSG mice", "protocol": "as §1\nRaji tumor burden was determined by bioluminescence imaging on day 7, day 10, day 12, day 14, day 17, and subsequently, once a week."}, "[7]": {"tested_on": "CD8+ T cells expressing a CD19 CAR with CD28 costimulatory domain", "experiment": "Cytokine production and secretion (IFN-γ, IL-2 ELISA), co-culture with K562/CD19", "assay_type": "cell-based, human", "conditions": "dasatinib ≥50 nM; 20 h", "protocol": "Cytokine secretion: 5×10^4 T-cells were plated in duplicate or triplicate wells with target cells at an E:T ratio of 4:1 (K562/ROR1, K562/CD19, RCH-ACV), and IFN-γ and IL-2 were measured by ELISA, or cytokine panels were measured by multiplex cytokine immunoassay (Luminex) in supernatant removed after 20-h incubation. Specific cytokine production was calculated by subtracting the amount of cytokines released by unstimulated CAR-T cells from the amount of cytokines released after antigen-specific stimulation. The remaining cytokine secretion in % as shown in the diagrams is normalized to CAR-T cells in the absence of dasatinib-treatment (100%).\nCAR-T cells were co-cultured with K562 that the inventors had transduced with either CD19 (for testing CD19 CAR-T cells) or ROR1 (for testing ROR1 CAR-T cells). Dasatinib was added to the assay medium at the beginning of the co-culture assay. ELISA was performed to detect IFN-γ and IL-2 in supernatant removed from the co-culture."}, "[8]": {"tested_on": "CD8+ T cells expressing a SLAMF7-CAR with 4-1BB costimulation", "experiment": "Bioluminescence-based cytotoxicity assay, K562/SLAMF7 target cells", "assay_type": "cell-based, human"}}, "data": [{"smiles": "Cc1nc(Nc2ncc(C(=O)Nc3c(C)cccc3Cl)s2)cc(N2CCN(CCO)CC2)n1", "note": "[dasatinib]", "values": [{"measurement": "reduction of production and secretion of GM-CSF, IFN-γ, IL-2, IL-4, IL-5, IL-6, IL-8", "setting": "[1]", "value": "> 95", "unit": "%"}, {"measurement": "serum level of GM-CSF", "setting": "CD19 CAR/4-1BB-T cells [2]; day +1, CAR-T cells and dasatinib (CAR/+)", "value": 6.4, "unit": "pg/mL"}, {"measurement": "serum level of IFN-γ", "setting": "CD19 CAR/4-1BB-T cells [2]; day +1, CAR/+", "value": 13.4, "unit": "pg/mL"}, {"measurement": "serum level of IL-5", "setting": "CD19 CAR/4-1BB-T cells [2]; day +1, CAR/+", "value": 21.4, "unit": "pg/mL"}, {"measurement": "serum level of TNF-α", "setting": "CD19 CAR/4-1BB-T cells [2]; day +1, CAR/+", "value": 0.04, "unit": "pg/mL"}, {"measurement": "serum level of GM-CSF", "setting": "CD19 CAR/4-1BB-T cells [2]; day +3, dasatinib discontinued", "value": 45.8, "unit": "pg/mL"}, {"measurement": "serum level of IFN-γ", "setting": "CD19 CAR/4-1BB-T cells [2]; day +3, dasatinib discontinued", "value": 411.8, "unit": "pg/mL"}, {"measurement": "serum level of IL-2", "setting": "CD19 CAR/4-1BB-T cells [2]; day +3, dasatinib discontinued", "value": 0.2, "unit": "pg/mL"}, {"measurement": "serum level of IL-5", "setting": "CD19 CAR/4-1BB-T cells [2]; day +3, dasatinib discontinued", "value": 331.2, "unit": "pg/mL"}, {"measurement": "serum level of IL-6", "setting": "CD19 CAR/4-1BB-T cells [2]; day +3, dasatinib discontinued", "value": 0.9, "unit": "pg/mL"}, {"measurement": "serum level of TNF-α", "setting": "CD19 CAR/4-1BB-T cells [2]; day +3, dasatinib discontinued", "value": 0.9, "unit": "pg/mL"}, {"measurement": "reduction of tumor luminescence", "setting": "[3]", "value": 66, "unit": "%"}, {"measurement": "phosphorylation compared to CAR-T cells co-cultured in the absence of dasatinib", "setting": "ZAP70 at tyrosine 319", "value": 11.61, "unit": "%"}, {"measurement": "mean fluorescence intensity (MFI) of GFP expression", "setting": "[4]", "value": 129}, {"measurement": "frequency of human T cells, bone marrow", "setting": "CD19 CAR/4-1BB-T cells [5]; day 1, 0.099% CAR/untreated", "value": 0.087, "unit": "%"}, {"measurement": "frequency of human T cells, peripheral blood", "setting": "CD19 CAR/4-1BB-T cells [5]; day 1, […] CAR/untreated", "value": 0.19, "unit": "%"}, {"measurement": "frequency of CAR-T cells, bone marrow", "setting": "CD19 CAR/4-1BB-T cells [5]; day +3, 0.56% CAR/untreated", "value": 0.23, "unit": "%"}, {"measurement": "frequency of CAR-T cells, peripheral blood", "setting": "CD19 CAR/4-1BB-T cells [5]; day +3, 0.61% CAR/untreated", "value": 0.36, "unit": "%"}, {"measurement": "mean reduction of BLI", "setting": "[6]; between day 12 and 14, previously treated with dasatinib", "value": 71, "unit": "%"}, {"measurement": "median BLI", "setting": "[6]; day 17, CAR/Dasa, 966 CAR/vehicle, 839 CAR alone", "value": 507}, {"measurement": "residual specific IFN-γ production compared to non-dasatinib treated CAR-T cells", "setting": "[7]", "value": "less than 4.5%"}, {"measurement": "specific lysis of target cells", "setting": "[8]; dasatinib 20 nM, t=6 h, 63% by non-dasatinib treated", "value": 21, "unit": "%"}, {"measurement": "specific lysis of target cells", "setting": "[8]; dasatinib 20 nM, t=12 h, 83% by non-dasatinib treated", "value": 35, "unit": "%"}, {"measurement": "specific lysis of target cells", "setting": "[8]; dasatinib ≥40 nM, t=12 h, 83% by non-dasatinib treated", "value": "less than 10%"}, {"measurement": "specific lysis of target cells", "setting": "[8]; dasatinib ≥40 nM, up to t=6 h", "value": "less than 5.5%"}]}]}
